Data from publication PMC4447944 (The Journal of Biological Chemistry, 2015).

Tests used:
[1] = molecular target: T1, hFGR (Homo sapiens, UniProt P09769); experiment: KINOMEscan; assay type: binding
T1 construct: purchased DiscoverX

[2] = molecular target: T2, hM2 (Homo sapiens, UniProt P08172); experiment: β-arrestin Potentiation (Eurofins-CEREP); conditions: @ 10 μM
T2 sequence (P08172 1-466): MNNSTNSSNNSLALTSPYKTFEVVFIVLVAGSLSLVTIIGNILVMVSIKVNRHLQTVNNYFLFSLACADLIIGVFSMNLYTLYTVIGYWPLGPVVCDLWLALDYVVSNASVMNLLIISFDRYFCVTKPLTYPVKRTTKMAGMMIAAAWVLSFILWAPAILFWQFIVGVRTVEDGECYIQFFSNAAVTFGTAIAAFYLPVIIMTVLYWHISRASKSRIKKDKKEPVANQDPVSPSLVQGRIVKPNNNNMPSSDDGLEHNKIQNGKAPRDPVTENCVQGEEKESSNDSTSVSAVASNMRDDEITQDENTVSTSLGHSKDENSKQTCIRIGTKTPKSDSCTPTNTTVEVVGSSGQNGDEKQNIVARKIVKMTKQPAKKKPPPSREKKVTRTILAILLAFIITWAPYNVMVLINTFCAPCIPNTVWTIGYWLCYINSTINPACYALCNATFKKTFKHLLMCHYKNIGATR

[3] = molecular target: T3, hERN1 (Homo sapiens, UniProt O75460); experiment: KINOMEscan; assay type: binding
T3 construct: purchased DiscoverX

[4] = molecular target: T4, hABL1(pE255K) (Homo sapiens, UniProt P00519, E255K); experiment: KINOMEscan; assay type: binding
T4 construct: purchased DiscoverX (KINOMEscan platform)

[5] = molecular target: T5, hRET(M918T) (Homo sapiens, UniProt P07949, M918T); experiment: KINOMEscan; assay type: binding
T5 construct: purchased DiscoverX (KINOMEscan platform)

[6] = molecular target: T6, hEGFR (Homo sapiens, UniProt P00533); experiment: KINOMEscan; assay type: binding
T6 construct: purchased DiscoverX
T6 sequence (P00533 25-1210): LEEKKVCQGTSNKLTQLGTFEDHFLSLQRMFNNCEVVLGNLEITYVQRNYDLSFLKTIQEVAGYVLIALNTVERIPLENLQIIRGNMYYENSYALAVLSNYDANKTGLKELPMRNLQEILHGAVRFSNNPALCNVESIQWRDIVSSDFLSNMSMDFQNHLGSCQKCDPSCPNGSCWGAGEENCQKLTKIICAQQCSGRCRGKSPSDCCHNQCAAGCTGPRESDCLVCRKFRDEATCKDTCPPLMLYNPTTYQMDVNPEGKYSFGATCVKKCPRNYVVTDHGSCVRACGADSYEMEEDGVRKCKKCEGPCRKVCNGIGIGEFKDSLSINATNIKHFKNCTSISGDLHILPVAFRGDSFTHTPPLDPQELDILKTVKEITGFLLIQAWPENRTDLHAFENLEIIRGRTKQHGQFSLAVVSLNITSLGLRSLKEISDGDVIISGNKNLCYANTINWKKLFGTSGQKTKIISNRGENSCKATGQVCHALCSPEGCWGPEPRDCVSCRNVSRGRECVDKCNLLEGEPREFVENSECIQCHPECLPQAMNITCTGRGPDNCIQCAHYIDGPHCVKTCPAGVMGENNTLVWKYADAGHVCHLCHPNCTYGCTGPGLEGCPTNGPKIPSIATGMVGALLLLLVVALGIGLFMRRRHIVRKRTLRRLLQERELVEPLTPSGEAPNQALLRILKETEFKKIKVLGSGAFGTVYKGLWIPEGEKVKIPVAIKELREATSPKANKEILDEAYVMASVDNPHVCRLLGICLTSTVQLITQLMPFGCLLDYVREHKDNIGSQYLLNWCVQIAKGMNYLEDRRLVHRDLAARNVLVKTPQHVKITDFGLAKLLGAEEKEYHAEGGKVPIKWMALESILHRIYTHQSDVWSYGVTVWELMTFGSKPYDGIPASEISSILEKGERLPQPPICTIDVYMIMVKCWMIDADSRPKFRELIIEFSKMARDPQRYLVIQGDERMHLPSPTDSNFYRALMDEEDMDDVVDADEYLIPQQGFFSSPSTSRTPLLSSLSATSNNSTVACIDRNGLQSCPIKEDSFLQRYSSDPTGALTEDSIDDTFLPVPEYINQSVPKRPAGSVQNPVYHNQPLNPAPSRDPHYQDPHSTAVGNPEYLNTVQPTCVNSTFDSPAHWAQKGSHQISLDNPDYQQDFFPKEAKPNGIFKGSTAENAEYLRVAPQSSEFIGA

[7] = tested on: p53 Lys370 methylation; experiment: Western blot time course and subcellular fractionation, KYSE-150 cells stably expressing FLAG-SMYD2; assay type: cell-based, human
Description: 5 × 10^6 KYSE-150 cells or KYSE-150 cells stably overexpressing SMYD2 were harvested and separated into subcellular fractions using the Subcellular Protein Fractionation kit for cultured cells (Thermo Scientific) according to the manufacturer's instructions. Lysates were reduced, boiled, subjected to 4–20% SDS-PAGE, and transferred to nitrocellulose membranes. […] Each membrane was then incubated with ECL anti-rabbit or anti-mouse IgG HRP-linked whole antibody (GE Healthcare) followed by detection with SuperSignal West Femto Maximum Sensitivity Substrate (Thermo Scientific) on a ChemiDoc^TM XRS system (Bio-Rad). Primary tumor lysates in RIPA buffer were obtained from Crownbio Bioscience. Cancer cell lines were obtained from the German Collection of Microorganisms and Cell Cultures GmbH (DSMZ), the Korean Cell Line Bank, the Japanese Collection of Research Bio-Resources, or the American Type Culture Collection (ATCC). Tumor cells were lysed in buffer containing 50 mM Tris-HCl, pH 7.5, 500 mM NaCl, 1% Nonidet P-40, 0.25% sodium deoxycholate, 20 mM NaF, protease inhibitor mixture (Roche Applied Science), and phosphatase inhibitor mixtures I and II (Sigma). Tumor or cell lysates were boiled, subjected to 4–20% SDS-PAGE, and transferred to nitrocellulose membrane. Each membrane was blocked in Odyssey Blocking Buffer and incubated with custom-made mouse monoclonal anti-SMYD2 or mouse monoclonal anti-β-actin (Sigma) antibody followed by detection with IRDye680RD goat anti-mouse IgG on the Odyssey Imager.

[8] = molecular target: T7, hAMPK-alpha2 (Homo sapiens, UniProt P54646); experiment: KINOMEscan; assay type: binding
T7 construct: purchased DiscoverX

[9] = molecular target: T8, hERK5 (Homo sapiens, UniProt Q13164); experiment: KINOMEscan; assay type: binding
T8 construct: purchased DiscoverX

[10] = molecular target: T9, hFGFR1 (Homo sapiens, UniProt P11362); experiment: KINOMEscan; assay type: binding
T9 construct: purchased DiscoverX

[11] = molecular target: T10, hCAMKK1 (Homo sapiens, UniProt Q8N5S9); experiment: KINOMEscan; assay type: binding
T10 construct: purchased DiscoverX
T10 sequence (Q8N5S9 whole entry): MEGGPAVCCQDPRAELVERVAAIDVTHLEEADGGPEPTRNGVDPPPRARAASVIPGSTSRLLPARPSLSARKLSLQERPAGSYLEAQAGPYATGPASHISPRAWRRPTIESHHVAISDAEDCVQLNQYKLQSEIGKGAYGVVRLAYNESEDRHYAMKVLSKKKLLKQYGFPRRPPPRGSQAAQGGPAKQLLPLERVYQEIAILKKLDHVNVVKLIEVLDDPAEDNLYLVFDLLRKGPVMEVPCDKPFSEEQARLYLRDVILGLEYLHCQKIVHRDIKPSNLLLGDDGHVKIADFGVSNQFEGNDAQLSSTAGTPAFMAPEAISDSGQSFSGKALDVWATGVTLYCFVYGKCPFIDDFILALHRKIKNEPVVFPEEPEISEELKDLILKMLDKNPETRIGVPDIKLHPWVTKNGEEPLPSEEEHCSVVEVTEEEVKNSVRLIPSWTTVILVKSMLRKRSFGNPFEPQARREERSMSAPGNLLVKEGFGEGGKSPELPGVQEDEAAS

[12] = molecular target: T11, hDMPK2 (Homo sapiens, UniProt Q6DT37); experiment: KINOMEscan; assay type: binding
T11 construct: purchased DiscoverX (KINOMEscan platform)

[13] = molecular target: T12, hEPHA8 (Homo sapiens, UniProt P29322); experiment: KINOMEscan; assay type: binding
T12 construct: purchased DiscoverX
T12 sequence (P29322 28-1005): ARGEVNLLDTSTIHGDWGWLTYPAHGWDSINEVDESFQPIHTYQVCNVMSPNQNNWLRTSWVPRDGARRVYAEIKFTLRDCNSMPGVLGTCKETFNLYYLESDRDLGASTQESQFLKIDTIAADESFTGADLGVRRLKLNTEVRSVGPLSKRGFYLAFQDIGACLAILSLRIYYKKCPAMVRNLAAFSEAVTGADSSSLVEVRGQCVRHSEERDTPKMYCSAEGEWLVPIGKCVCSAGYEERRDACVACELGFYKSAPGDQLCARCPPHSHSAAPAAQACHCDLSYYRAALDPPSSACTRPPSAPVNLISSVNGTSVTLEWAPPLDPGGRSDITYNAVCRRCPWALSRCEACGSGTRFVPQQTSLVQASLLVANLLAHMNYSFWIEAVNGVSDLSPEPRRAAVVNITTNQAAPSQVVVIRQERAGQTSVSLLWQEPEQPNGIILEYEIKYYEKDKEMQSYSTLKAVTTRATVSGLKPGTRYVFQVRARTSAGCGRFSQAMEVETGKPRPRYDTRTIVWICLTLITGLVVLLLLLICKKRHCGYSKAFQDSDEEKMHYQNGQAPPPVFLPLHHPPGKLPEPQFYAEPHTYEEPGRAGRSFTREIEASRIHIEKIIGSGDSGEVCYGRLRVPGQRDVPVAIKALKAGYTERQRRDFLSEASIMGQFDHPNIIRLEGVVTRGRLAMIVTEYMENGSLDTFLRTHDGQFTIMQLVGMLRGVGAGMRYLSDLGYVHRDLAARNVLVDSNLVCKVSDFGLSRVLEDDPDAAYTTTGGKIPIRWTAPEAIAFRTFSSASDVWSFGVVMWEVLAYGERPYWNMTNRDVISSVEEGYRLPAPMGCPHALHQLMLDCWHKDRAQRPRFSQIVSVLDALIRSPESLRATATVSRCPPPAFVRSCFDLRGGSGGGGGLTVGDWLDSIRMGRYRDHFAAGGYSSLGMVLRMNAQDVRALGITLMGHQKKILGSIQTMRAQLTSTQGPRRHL

[14] = molecular target: T13, hIGF1R (Homo sapiens, UniProt P08069); experiment: KINOMEscan; assay type: binding
T13 construct: purchased DiscoverX (KINOMEscan panel)

[15] = molecular target: T14, hABL1(pF317L) (Homo sapiens, UniProt P00519, F317L); experiment: KINOMEscan; assay type: binding
T14 construct: purchased DiscoverX (KINOMEscan platform)

[16] = molecular target: T15, hDCAMKL1 (Homo sapiens, UniProt O15075); experiment: KINOMEscan; assay type: binding
T15 construct: purchased DiscoverX (KINOMEscan platform)
T15 sequence (O15075 whole entry): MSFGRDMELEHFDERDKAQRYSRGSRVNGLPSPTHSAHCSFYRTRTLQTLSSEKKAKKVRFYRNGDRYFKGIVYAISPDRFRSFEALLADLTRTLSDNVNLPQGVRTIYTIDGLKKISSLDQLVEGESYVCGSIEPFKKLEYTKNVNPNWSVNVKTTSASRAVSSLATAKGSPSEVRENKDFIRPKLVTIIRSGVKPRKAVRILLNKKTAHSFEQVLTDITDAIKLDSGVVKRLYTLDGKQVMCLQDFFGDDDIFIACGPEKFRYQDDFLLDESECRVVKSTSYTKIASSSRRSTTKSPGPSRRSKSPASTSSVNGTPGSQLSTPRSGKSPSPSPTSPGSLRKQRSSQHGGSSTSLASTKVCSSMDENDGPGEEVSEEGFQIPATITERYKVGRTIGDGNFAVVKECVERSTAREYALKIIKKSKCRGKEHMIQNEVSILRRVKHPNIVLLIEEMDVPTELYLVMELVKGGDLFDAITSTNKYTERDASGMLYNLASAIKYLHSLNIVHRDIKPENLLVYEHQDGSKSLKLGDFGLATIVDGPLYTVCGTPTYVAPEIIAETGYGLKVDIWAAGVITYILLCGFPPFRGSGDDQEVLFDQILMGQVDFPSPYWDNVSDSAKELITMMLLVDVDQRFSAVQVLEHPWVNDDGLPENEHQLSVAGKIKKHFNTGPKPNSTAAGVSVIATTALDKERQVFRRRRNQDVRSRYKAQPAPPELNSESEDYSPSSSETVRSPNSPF

[17] = molecular target: T16, hADRα2A (Homo sapiens, UniProt P08913); experiment: cAMP Agonist (Eurofins-CEREP); conditions: @ 10 μM
T16 sequence (P08913 1-465): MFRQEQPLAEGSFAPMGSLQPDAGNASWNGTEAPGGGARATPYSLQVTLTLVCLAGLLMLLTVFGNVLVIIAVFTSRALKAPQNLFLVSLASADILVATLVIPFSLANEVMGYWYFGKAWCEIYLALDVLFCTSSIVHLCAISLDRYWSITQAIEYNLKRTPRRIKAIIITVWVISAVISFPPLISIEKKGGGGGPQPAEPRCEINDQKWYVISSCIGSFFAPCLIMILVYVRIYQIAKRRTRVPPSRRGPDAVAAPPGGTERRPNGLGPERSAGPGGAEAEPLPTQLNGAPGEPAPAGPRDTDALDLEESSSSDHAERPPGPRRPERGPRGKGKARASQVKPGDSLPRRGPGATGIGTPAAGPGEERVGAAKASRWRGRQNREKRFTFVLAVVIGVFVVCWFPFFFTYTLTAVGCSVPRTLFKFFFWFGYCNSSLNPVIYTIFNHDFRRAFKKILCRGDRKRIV

[18] = molecular target: T17, hABL1(pT315I) (Homo sapiens, UniProt P00519, T315I); experiment: KINOMEscan; assay type: binding
T17 construct: purchased DiscoverX (KINOMEscan platform)

[19] = molecular target: T18, hRPS6KA4(Kin.Dom.1-N-term) (Homo sapiens, UniProt O75676); experiment: KINOMEscan; assay type: binding
T18 construct: hRPS6KA4(Kin.Dom.1-N-term); purchased DiscoverX (KINOMEscan platform)
T18 sequence (O75676 33-301 limits assumed): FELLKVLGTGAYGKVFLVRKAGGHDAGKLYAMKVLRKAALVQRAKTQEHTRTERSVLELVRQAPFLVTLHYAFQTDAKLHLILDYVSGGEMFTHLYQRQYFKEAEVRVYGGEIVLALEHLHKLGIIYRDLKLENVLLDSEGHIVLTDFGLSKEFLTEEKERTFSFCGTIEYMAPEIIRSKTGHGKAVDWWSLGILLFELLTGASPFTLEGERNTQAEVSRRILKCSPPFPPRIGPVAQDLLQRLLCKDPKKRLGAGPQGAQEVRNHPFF

[20] = molecular target: T19, hICK (Homo sapiens, UniProt Q9UPZ9); experiment: KINOMEscan; assay type: binding
T19 construct: purchased DiscoverX (KINOMEscan panel)
T19 sequence (Q9UPZ9 whole entry): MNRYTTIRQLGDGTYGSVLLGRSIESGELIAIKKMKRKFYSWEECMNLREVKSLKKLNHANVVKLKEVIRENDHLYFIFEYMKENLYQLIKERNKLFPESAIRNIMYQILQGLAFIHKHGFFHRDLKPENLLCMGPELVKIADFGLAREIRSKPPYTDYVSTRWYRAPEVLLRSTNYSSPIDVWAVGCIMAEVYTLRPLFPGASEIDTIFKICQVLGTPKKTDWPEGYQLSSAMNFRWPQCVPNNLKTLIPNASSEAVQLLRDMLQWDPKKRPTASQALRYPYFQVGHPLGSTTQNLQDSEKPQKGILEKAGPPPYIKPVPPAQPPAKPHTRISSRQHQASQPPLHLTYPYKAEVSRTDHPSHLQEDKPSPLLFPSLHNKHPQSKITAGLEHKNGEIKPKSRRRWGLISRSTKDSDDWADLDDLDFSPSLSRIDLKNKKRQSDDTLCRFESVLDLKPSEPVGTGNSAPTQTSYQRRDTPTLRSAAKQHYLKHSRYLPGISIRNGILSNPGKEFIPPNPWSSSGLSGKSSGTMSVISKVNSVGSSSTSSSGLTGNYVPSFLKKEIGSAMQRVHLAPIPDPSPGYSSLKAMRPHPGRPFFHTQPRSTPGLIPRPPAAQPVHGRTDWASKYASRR

T1 sequence (P09769 whole entry): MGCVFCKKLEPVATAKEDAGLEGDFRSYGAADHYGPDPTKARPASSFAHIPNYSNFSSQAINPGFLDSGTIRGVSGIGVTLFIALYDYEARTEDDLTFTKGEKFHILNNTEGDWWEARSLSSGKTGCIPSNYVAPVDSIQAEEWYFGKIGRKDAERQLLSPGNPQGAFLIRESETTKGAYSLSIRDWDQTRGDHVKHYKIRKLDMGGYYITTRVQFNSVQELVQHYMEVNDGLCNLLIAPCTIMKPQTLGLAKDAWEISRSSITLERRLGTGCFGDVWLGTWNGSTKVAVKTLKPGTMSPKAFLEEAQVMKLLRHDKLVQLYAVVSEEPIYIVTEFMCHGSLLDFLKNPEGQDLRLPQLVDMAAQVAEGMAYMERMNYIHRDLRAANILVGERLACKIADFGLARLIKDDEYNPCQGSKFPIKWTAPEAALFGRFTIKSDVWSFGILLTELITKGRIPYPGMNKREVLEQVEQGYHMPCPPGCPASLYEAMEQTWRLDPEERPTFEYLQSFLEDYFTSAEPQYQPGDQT

Cc1cn(CCN2CCN(c3ccccc3-c3cc(C#N)cc(C(=O)NCCCN4CCCC4)c3)CC2)c2ccccc12 [LLY-507, 3-cyano-5-{2-[4-[2-(3-methylindol-1-yl)ethyl]piperazin-1-yl]-phenyl}-N-[(3-pyrrolidin-1-yl)propyl]benzamide]
50%: reduction of Lys370 methylation on cytoplasmic p53 ([7]; cytoplasmic fraction, KYSE-150 FLAG-SMYD2)
≤ 18 h: time by which significant reductions in p53 Lys370 methylation occurred ([7]; 5 μM LLY-507, SMYD2-overexpressing KYSE-150)
not significantly affected: total levels of p53 ([7]; KYSE-150 FLAG-SMYD2)
0.2%: % Effect, Stimulation [17]
25%: reduction of Lys370 methylation on nuclear p53 ([7]; nuclear fraction, KYSE-150 FLAG-SMYD2)
-32.2%: % Effect, Potentiation [2]
> 20 µM: IC50 [1] | IC50 [3] | IC50 [4] | IC50 [5] | IC50 [6] | IC50 [8] | IC50 [9] | IC50 [10] | IC50 [11] | IC50 [12] | IC50 [13] | IC50 [14] | IC50 [15] | IC50 [16] | IC50 [18] | IC50 [19] | IC50 [20]
